Measurements published in PMC2225441, “Partial Restoration of Mutant Enzyme Homeostasis in Three Distinct Lysosomal Storage Disease Cell Lines by Altering Calcium Homeostasis” (PLoS Biology, 2008).
pIC50: −log10 of the molar value.

Tested on: ΔF508 CFTR
Experiment: not given
Details: SERCA inhibitor; cited from earlier work

SMILES | folding and trafficking of ΔF508 CFTR
COc1cc(/C=C/C(=O)CC(=O)/C=C/c2ccc(O)c(OC)c2)ccc1O [curcumin] | enhance folding and trafficking of ΔF508 CFTR
C/C=C(/C)C(=O)O[C@H]1C(C)=C2[C@H]([C@@H]1OC(=O)CCCCCCC)[C@@](C)(OC(C)=O)C[C@H](OC(=O)CCC)[C@@]1(O)[C@H]2OC(=O)[C@@]1(C)O [thapsigargin] | enhance folding and trafficking of ΔF508 CFTR

Tested on: L444P GC
Experiment: intact cell GC activity assay in homozygous L444P GC patient-derived fibroblasts
Assay type: cell-based, human
Details: 10 μM; 7 d; intact cell assay; Figure 3D

SMILES | maximum increase of L444P lysosomal GC activity
COc1ccc([C@@H]2Sc3ccccc3N(CCN(C)C)C(=O)[C@@H]2O)cc1 [Compound 2] | 2.1 fold

Same assay, conditions: 30 μM; 7 d; intact cell assay; Figure 3D

SMILES | maximum increase in L444P GC activity
CNCCN1C(=O)[C@H](O)[C@H](c2ccc(O)cc2)Sc2ccccc21 [Compound 4] | 1.2 fold
CN(C)CCN1C(=O)[C@H](O)[C@H](c2ccc(O)cc2)Sc2ccccc21 [Compound 3] | 1.3 fold

Same assay, conditions: 0.3–100 μM; 7 d; intact cell assay; Figure 3D

SMILES | effect on L444P GC activity
COc1ccc([C@@H]2Sc3ccccc3NC(=O)[C@@H]2O)cc1 [Compound 6] | do not increase L444P GC activity
COc1ccc([C@@H]2Sc3ccccc3NC(=O)[C@@H]2OC(C)=O)cc1 [Compound 5] | do not increase L444P GC activity

Same assay, conditions: Figure S4

SMILES | L444P GC folding, trafficking, or lysosomal activity
C/C=C(/C)C(=O)O[C@H]1C(C)=C2[C@H]([C@@H]1OC(=O)CCCCCCC)[C@@](C)(OC(C)=O)C[C@H](OC(=O)CCC)[C@@]1(O)[C@H]2OC(=O)[C@@]1(C)O [thapsigargin] | does not enhance L444P GC folding, trafficking, or lysosomal activity

Same assay, conditions: alone; above 1 nM; 7-d incubation; Figure S4

SMILES | influence on L444P GC activity at higher concentration
C/C=C(/C)C(=O)O[C@H]1C(C)=C2[C@H]([C@@H]1OC(=O)CCCCCCC)[C@@](C)(OC(C)=O)C[C@H](OC(=O)CCC)[C@@]1(O)[C@H]2OC(=O)[C@@]1(C)O [thapsigargin] | decreased L444P GC activity significantly

Same assay, conditions: alone; until 1 nM; 7 d; Figure S4

SMILES | influence on L444P GC activity at low concentration
C/C=C(/C)C(=O)O[C@H]1C(C)=C2[C@H]([C@@H]1OC(=O)CCCCCCC)[C@@](C)(OC(C)=O)C[C@H](OC(=O)CCC)[C@@]1(O)[C@H]2OC(=O)[C@@]1(C)O [thapsigargin] | no influence on GC activity

Same assay, conditions: intact cell GC activity assay; only the named compounds increased activity

SMILES | L444P GC activity, screen of VGCC blockers, ionotropic glutamate receptor inhibitors and other calcium channel blockers
O=[N+]([O-])c1cc2nc(O)c(O)nc2cc1[N+](=O)[O-] [DNQX] | only diltiazem and verapamil
NC(=O)OCC(COC(N)=O)c1ccccc1 [felbamate] | only diltiazem and verapamil
CC(C)COCC(CN(Cc1ccccc1)c1ccccc1)N1CCCC1 (stereo not shown) [bepridil] | only diltiazem and verapamil
CCOC(=O)C(N)/C=C(\C)CP(=O)(O)O (stereo not shown) [CGP 39551] | only diltiazem and verapamil
CCCCc1oc2ccccc2c1C(=O)c1cc(I)c(OCCN(CC)CC)c(I)c1 [amiodarone] | only diltiazem and verapamil
COCCOC(=O)C1=C(C)NC(C)=C(C(=O)OC(C)C)C1c1cccc([N+](=O)[O-])c1 (stereo not shown) [nimodipine] | only diltiazem and verapamil
CCC1(C)CC(=O)NC1=O (stereo not shown) [ethosuximide] | only diltiazem and verapamil
O=C(O)c1cc(=O)c2c(Cl)cc(Cl)cc2[nH]1 [5,7-dichlorokynurenic acid] | only diltiazem and verapamil
Cc1cc(-c2ccc(/N=N/c3ccc4c(S(=O)(=O)O)cc(S(=O)(=O)O)c(N)c4c3O)c(C)c2)ccc1/N=N/c1ccc2c(S(=O)(=O)O)cc(S(=O)(=O)O)c(N)c2c1O [Evans blue] | only diltiazem and verapamil
CN(C)C(=O)C(CCN1CCC(O)(c2ccc(Cl)cc2)CC1)(c1ccccc1)c1ccccc1 [loperamide] | only diltiazem and verapamil
COc1ccc(CCCOC(Cn2ccnc2)c2ccc(OC)cc2)cc1 (stereo not shown) [SKF 96365] | only diltiazem and verapamil
Fc1ccc(C(c2ccc(F)cc2)N2CCN(C/C=C/c3ccccc3)CC2)cc1 [flunarizine] | only diltiazem and verapamil
COCC(=O)O[C@]1(CCN(C)CCCc2nc3ccccc3[nH]2)CCc2cc(F)ccc2[C@@H]1C(C)C [mibefradil] | only diltiazem and verapamil

Same assay, conditions: intact cell GC enzyme assay; 5-d incubation; Figure S1; only the named compound increased activity

SMILES | L444P GC activity, screen of fifteen thermosensitive TRP channel modulators
CCCCCCCC/C=C\CCCCCCCC(=O)NCc1ccc(O)c(OC)c1 [olvanil] | Only ruthenium red notably increased
C=CCN=C=S [allylisothiocyanate] | Only ruthenium red notably increased
N.N.N.N.N.N.N.N.N.N.N.N.N.N.[Cl-].[Cl-].[Cl-].[Cl-].[Cl-].[Cl-].[O-2].[O-2].[Ru+3].[Ru+3].[Ru+4] [ruthenium red] | notably increased
O=C1NC(c2cccc([N+](=O)[O-])c2)=CCN1c1ccccc1O [icilin] | Only ruthenium red notably increased
CCCCCCCCCC(=O)O[C@@H]1[C@@H](C)[C@@]2(O)[C@@H](C=C(CO)C[C@@]3(O)C(=O)C(C)=C[C@@H]23)[C@@H]2C(C)(C)[C@]12OC(=O)CCCCCCCCC [Compound 4α-PDD, 4α-PDD] | Only ruthenium red notably increased
NCCOB(c1ccccc1)c1ccccc1 [Compound 2-APB, 2-APB] | Only ruthenium red notably increased
C=C(C)[C@]12C[C@@H](C)[C@@]34O[C@](Cc5ccccc5)(O[C@@H]1[C@@H]3C=C(COC(=O)Cc1ccc(O)c(OC)c1)C[C@]1(O)C(=O)C(C)=C[C@@H]41)O2 [resiniferatoxin] | Only ruthenium red notably increased
COc1cc(CNC(=O)CCCC/C=C/C(C)C)ccc1O [capsaicin] | Only ruthenium red notably increased
CCCCC/C=C\C/C=C\C/C=C\C/C=C\CCCC(=O)NCCO [anandamide] | Only ruthenium red notably increased
O=C/C=C/c1ccccc1 [cinnamaldehyde] | Only ruthenium red notably increased
Oc1cc2c(cc1O)CN(C(=S)NCCc1ccc(Cl)cc1)CCC2 [capsazepine] | Only ruthenium red notably increased
CC12CCC(CC1=O)C2(C)C (stereo not shown) [camphor] | Only ruthenium red notably increased
O=C(/C=C/C=C/c1ccc2c(c1)OCO2)N1CCCCC1 [piperine] | Only ruthenium red notably increased
CC12CCC(CC1)C(C)(C)O2 [eucalyptol] | Only ruthenium red notably increased
CC1CCC(C(C)C)C(O)C1 (stereo not shown) [menthol] | Only ruthenium red notably increased

Same assay, conditions: varying concentrations with 10 μM diltiazem; 7 d; Figure S4

SMILES | L444P GC activity on co-application with diltiazem
C/C=C(/C)C(=O)O[C@H]1C(C)=C2[C@H]([C@@H]1OC(=O)CCCCCCC)[C@@](C)(OC(C)=O)C[C@H](OC(=O)CCC)[C@@]1(O)[C@H]2OC(=O)[C@@]1(C)O [thapsigargin] | dose-dependent decrease of GC activity

Tested on: L444P fibroblasts
Experiment: cytotoxicity to L444P fibroblasts
Assay type: cell-based, human
Details: high concentrations (>10 μM)

SMILES | toxicity to L444P fibroblasts
COc1ccc([C@@H]2Sc3ccccc3NC(=O)[C@@H]2O)cc1 [Compound 6] | toxic
COc1ccc([C@@H]2Sc3ccccc3NC(=O)[C@@H]2OC(C)=O)cc1 [Compound 5] | toxic

Tested on: Ca^2+ channel
Experiment: not given
Details: previously reported; read-out: Ca^2+ channel blocker IC50; cited from earlier work

SMILES | pIC50
CNCCN1C(=O)[C@H](O)[C@H](c2ccc(O)cc2)Sc2ccccc21 [Compound 4] | 3.90
CN(C)CCN1C(=O)[C@H](O)[C@H](c2ccc(O)cc2)Sc2ccccc21 [Compound 3] | 4.34
